Key:
RPP tumor = assay: Flank RPP (SCLC) tumor growth in B6129F1 immunocompetent mice; type: in vivo, mouse; details: anti-PD-L1 300 μg 1-day-on/6-days-off; LDG 40 mg/kg 1-day-on/6-days-off; SRA737 100 mg/kg 2-day-on/5-days-off
Protocol: Tumors were evaluated twice weekly for the duration of the study. Tumor volumes were measured on all mice three times per week and calculated (width^2×length×0.4) using manual calipers. Once the average tumor size was in the range of 120-150 mm^3, mice were randomized into dosing groups using stratified sampling by assigning three animals per group for short-term reverse-phase protein array analysis and long-term treatment. Dosing schedules and duration varied depending on the study. Mice were weighed three times per week for the duration of the study, and a decrease in body weight >15% was considered indicative of a toxic dose. The Student t-test was used to determine statistical significance between compound- and vehicle-treated groups.
[…] 15A.

RPP = assay: Survival of cancer cells after gemcitabine, RPP; type: cell-based, murine; details: RPP SCLC in vitro model
Protocol: Data presented as mean±SD and p values by t-test ***p<0.001.
(§1) SCLC cell lines were incubated with dimethyl sulfoxide (vehicle control), SRA737 or Gemcitabine for 96 hours at nine distinct concentrations, with the maximum dose being 10 μM. A CellTiter-Glo luminescent cell viability assay (Promega) was performed after 96 hours of treatment as per the manufacturer's specifications. IC50 values were estimated using Drexplorer, as previously described (Tong P, Coombes K R, Johnson F M, Byers L A, Diao L, Liu D D, Lee J J, Heymach J V, Wang J. drexplorer: A tool to explore dose-response relationships and drug-drug interactions. Bioinformatics. 2015 May 15; 31(10):1692-4.)

H209 = assay: Survival of cancer cells after gemcitabine, H209; type: cell-based; details: H209 SCLC in vitro model
Protocol: as §1

H524 = assay: Survival of cancer cells after gemcitabine, H524; type: cell-based; details: H524 SCLC in vitro model
Protocol: as §1

IFNβ, CXCL10 and CCL5 = assay: qPCR of IFNβ, CXCL10 and CCL5 in resected RPP tumors; type: in vivo, mouse; details: RPP tumors resected at Day 21; SRA737 2-days-on/5-days-off
Protocol: Data presented as mean±SD and p values by t-test * p<0.05, **p<0.01, ***p<0.001.
Real-time PCR was done using SYBR Select Master Mix (Life Technologies, cat #4472908) according to the manufacturer's protocol. Primers were purchased from Sigma Aldrich, Inc. Triplicate PCR reactions were run on ABI (7500 Fast Real Time PCR System). The comparative Ct method using the average 2ΔΔCT value for each set of triplicates was used, and the average of the biological replicates was calculated. Negative controls were included for every primer set, and GAPDH was used as the […].

Nc1ccn([C@@H]2O[C@H](CO)[C@@H](O)C2(F)F)c(=O)n1 [gemcitabine]
anti-tumor effect (tumor volume) (RPP tumor): no significant anti-tumor effect | response of cancer cells to gemcitabine alone (RPP): resistant | response of cancer cells to gemcitabine alone (H209): resistant | response of cancer cells to gemcitabine alone (H524): resistant | expression of IFNβ, CCL5 and CXCL10 (IFNβ, CXCL10 and CCL5): Neither LDG nor SRA737 monotherapy (2-days-on/5-days-off) showed any significant effect

Source: patent publication US20220184091A1, “Methods of Treating Cancer with Chk1 Inhibitors” (Sierra Oncology, Inc., priority 2019, published 2022)
